Test results from the NIST ThermoML archive (doi:10.1007/s10765-007-0223-x).

Assay: xn = mol fraction of the nth substance listed
Details: 101 kPa, Liquid; for speed of sound: Single path-length method

COC(C)(C)C [2-methoxy-2-methylpropane] + Cc1ccccc1
Details	mass density, 295.65 K [kg/m3]	mass density, 298.15 K [kg/m3]	mass density, 300.65 K [kg/m3]	mass density, 303.15 K [kg/m3]	speed of sound, 298.15 K [m/s]	speed of sound, 300.65 K [m/s]	speed of sound, 303.15 K [m/s]	speed of sound, 305.65 K [m/s]
x1 = 0.053	–	855.229	852.886	850.544	1288.9	1278.1	1267.3	1256.5
x1 = 0.116	–	847.105	844.749	842.388	1271.8	1260.8	1250	1239.1
x1 = 0.199	–	836.426	834.049	831.668	1251.2	1240.2	1229.3	1218.4
x1 = 0.301	–	823.289	820.886	818.477	1224.5	1213.6	1202.6	1191.7
x1 = 0.371	–	814.439	812.02	809.592	1205.5	1194.5	1183.6	1172.6
x1 = 0.463	–	802.616	800.168	797.712	1181.8	1170.8	1159.8	1148.8
x1 = 0.61	786.587	784.1	781.607	779.104	1142.6	1131.6	1120.6	1109.7
x1 = 0.688	776.847	774.335	771.814	769.287	1122	1111.4	1100.2	1089
x1 = 0.797	763.216	760.667	758.108	755.539	1093.8	1082.6	1071.4	1060.2
x1 = 0.902	750.116	747.528	744.931	742.321	1065.7	1054.4	1043.1	1031.7
x1 = 0.943	744.822	742.221	739.606	736.98	1053.5	1042.1	1030.7	1019.3
x1 = 1	737.036	734.406	731.766	729.112	1036.9	1025.4	1013.9	1002.4
